What all share (type): cell-based
For one experiment, the system named is mycoplasma. The experiment in a line: Antimycoplasma activity, paper disc method. The conditions noted are these: Eiken PPLO agar, pH 7.8, 37° C., 1 day. On the procedure:
Inhibitory zone is assayed by paper disc method (Eiken PPLO agar, pH 7.8,

The next experiment deals with Aspergillus niger. The experiment in a line: Antifungal activity, agar dilution method. The conditions noted are these: potato agar, pH 6.4, 27° C., 4 days. On the procedure: (§1) Minimal inhibitory concentration is assayed by agar dilution method
(§2) (potato agar, pH 6.4, 27° C., 4 days)
(In general: In agar dilution the substance is mixed into plates at graded concentrations.)

The next experiment has as its system Saccharomyces sake. The experiment in a line: Antifungal activity, agar dilution method. The conditions noted are these: potato agar, pH 6.4, 27° C., 4 days. On the procedure:
as §1, §2

In another experiment the test system is Trichophyton violaceum. The experiment in a line: Antifungal activity, agar dilution method. The conditions noted are these: potato agar, pH 6.4, 27° C., 4 days. On the procedure:
as §1, §2

The test system of a further experiment is Aspergillus fumigatus. The experiment in a line: Antifungal activity, agar dilution method. The conditions noted are these: potato agar, pH 6.4, 27° C., 4 days. The protocol: as §1, §2
For another experiment, the system named is Candida albicans. The experiment in a line: Antifungal activity, agar dilution method. The conditions noted are these: potato agar, pH 6.4, 27° C., 4 days. On the procedure: as §1, §2
A further experiment has as its system Microsporum gypseum. The experiment in a line: Antifungal activity, agar dilution method. The conditions noted are these: potato agar, pH 6.4, 27° C., 4 days. The protocol:
as §1, §2

For a further experiment, the system named is Trichophyton schoenleini. The experiment in a line: Antifungal activity, agar dilution method. The conditions noted are these: potato agar, pH 6.4, 27° C., 4 days. On the procedure: as §1, §2
The test system of experiment [1] is Trichophyton interdigitale. The experiment in a line: Antifungal activity, agar dilution method. The conditions noted are these: potato agar, pH 6.4, 27° C., 4 days. The protocol: as §1, §2
The next experiment relates to Trichophyton rubrum. The experiment in a line: Antifungal activity, agar dilution method. The conditions noted are these: potato agar, pH 6.4, 27° C., 4 days. The protocol: as §1, §2
The next experiment concerns Trichophyton ferrugineum. The experiment in a line: Antifungal activity, agar dilution method. The conditions noted are these: potato agar, pH 6.4, 27° C., 4 days. On the procedure: as §1, §2
For a further experiment, the system named is Trichophyton asteroides. The experiment in a line: Antifungal activity, agar dilution method. The conditions noted are these: potato agar, pH 6.4, 27° C., 4 days. The protocol: as §1, §2
Setting [2] is: Trichophyton, 96 h, read-out: Minimal Inhibitory Con.

Converted amounts (≈) assume the structure as drawn.

Turning to `CCC[C@H]1O[C@H](CC(=O)O)CC2=C1C(=O)c1c(O)cccc1C2=O` [Deoxyfrenolicin, deoxyfrenolicin], in the experiment with mycoplasma (Mycoplasma, 24 h, 10 μg/ml, read-out: Inhibitory Zone), the zone of inhibition at 10 µg/mL is 14.6 mm. Besides, in the experiment on mycoplasma (Mycoplasma, 24 h, 100 μg/ml, read-out: Inhibitory Zone), the zone of inhibition at 100 µg/mL was 21.8 mm. Moreover, the MIC in the experiment on Aspergillus niger (Aspergillus niger, 96 h, read-out: Minimal Inhibitory Con.) was above 100 µg/mL; in the experiment with Saccharomyces sake (Saccharomyces, 96 h, read-out: Minimal Inhibitory Con.), 6.3 µg/mL (≈ 19.1 µM); in the experiment with Trichophyton violaceum (Trichophyton violaceum, 96 h, read-out: Minimal Inhibitory Con.), 0.8 µg/mL (≈ 2.42 µM); with Aspergillus fumigatus (Aspergillus fumigatus, 96 h, read-out: Minimal Inhibitory Con.) it was 6.3 µg/mL (≈ 19.1 µM); in the experiment with Candida albicans (Candida albicans, 96 h, read-out: Minimal Inhibitory Con.) it was 50 µg/mL (≈ 151 µM); with Microsporum gypseum (Nannizzia gypsea, 96 h, read-out: Minimal Inhibitory Con.) it was below 0.2 µg/mL. In addition, the MIC was below 0.2 µg/mL with Trichophyton schoenleini (setting [2]); 0.4 µg/mL (≈ 1.21 µM) in [1] (Trichophyton interdigitale, 96 h, read-out: Minimal Inhibitory Con.); below 0.2 µg/mL with Trichophyton rubrum (Trichophyton rubrum, 96 h, read-out: Minimal Inhibitory Con.); 3.1 µg/mL (≈ 9.38 µM) in the experiment on Trichophyton ferrugineum (Microsporum ferrugineum, 96 h, read-out: Minimal Inhibitory Con.); below 0.2 µg/mL with Trichophyton asteroides (setting [2]).

For the compound ethylkalafunginate, the “Inhibitory Zone” value in the experiment on mycoplasma (10 μg/ml) and in the experiment with mycoplasma (100 μg/ml) was “none” throughout. For the same compound, the “Minimal Inhibitory Con.” value in the experiment with Aspergillus niger, in the experiment on Saccharomyces sake, with Trichophyton violaceum, in the experiment on Aspergillus fumigatus, in the experiment on Candida albicans and with Microsporum gypseum was above 100 µg/mL each time. The “Minimal Inhibitory Con.” value (with Trichophyton schoenleini; in [1]; in the experiment on Trichophyton rubrum; with Trichophyton ferrugineum; in the experiment on Trichophyton asteroides) was above 100 µg/mL each time.

For the origin of these results see patent US4308210A, “Nanaomycin B and therapeutic compositions containing same” (The Kitasato Institute, priority 1976, dated 1981).
